In US20220396569A1 (Carmot Therapeutics, Inc., priority 2021, published 2022):

Each compound was assayed against T1, human GLP-1 receptor (Homo sapiens, UniProt P43220) (assay: GLP-1R cAMP Assay (HitHunter cAMP accumulation)). Conditions: cAMP accumulation, CHO cells stably overexpressing human GLP-1 receptor, 30 min treatment; read-out: EC50.
T1 construct: expressed in transfected cells
Type: cell-based
Procedure, shortened: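 CHO cells stably expressing human GLP-1R, 10,000 cells/well in HBSS with 10 mM HEPES and 625 μM IBMX, were mixed with anti-cAMP antibody reagent. Compound was applied as a 20-point dose response in triplicate for 30 min. After lysis and overnight detection, luminescence was read and dose-response curves analysed.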

T1 sequence (P43220 24-463): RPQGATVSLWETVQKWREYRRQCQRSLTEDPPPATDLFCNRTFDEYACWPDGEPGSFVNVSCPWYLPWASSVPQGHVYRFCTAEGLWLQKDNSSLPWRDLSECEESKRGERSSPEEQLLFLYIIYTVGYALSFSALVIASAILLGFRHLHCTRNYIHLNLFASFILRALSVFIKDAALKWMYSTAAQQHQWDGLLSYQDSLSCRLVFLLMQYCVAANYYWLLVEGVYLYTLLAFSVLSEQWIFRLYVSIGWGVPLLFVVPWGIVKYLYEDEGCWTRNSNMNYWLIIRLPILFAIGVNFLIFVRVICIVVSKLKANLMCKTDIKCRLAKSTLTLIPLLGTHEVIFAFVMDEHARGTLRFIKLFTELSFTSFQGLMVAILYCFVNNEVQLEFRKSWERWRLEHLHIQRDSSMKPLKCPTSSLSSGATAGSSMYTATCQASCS

`O=C(O)c1ccc2nc(CN3CCC(c4nc(COc5ccc(Cl)cc5F)ccc4F)C3)n(C[C@@H]3CCO3)c2c1` (stereo partly drawn) [Compound 456, 2-[(3-{6-[(4-chloro-2-fluorophenoxy)methyl]-3-fluoropyridin-2-yl}pyrrolidin-1-yl)methyl]-1-{[(2S)-oxetan-2-yl]methyl}-1H-1,3-benzodiazole-6-carboxylic acid] and `N#Cc1ccc(OCc2nc(C3CCN(Cc4nc5ccc(C(=O)O)cc5n4C[C@@H]4CCO4)C3)ccc2F)c(F)c1` (stereo partly drawn) [Compound 410, 2-[(3-{6-[(4-cyano-2-fluorophenoxy)methyl]-5-fluoropyridin-2-yl}pyrrolidin-1-yl)methyl]-1-{[(2S)-oxetan-2-yl]methyl}-1H-1,3-benzodiazole-6-carboxylic acid] cannot be ordered by EC50: less than 0.05 µM for the first, less than 0.05 µM for the second.

First: O=C(O)c1ccc2nc(CN3CC(=Cc4ccnc(COc5ccc(Cl)cc5Cl)c4)C3)n(C[C@@H]3CCO3)c2c1 [Compound 190, 2-{[3-({2-[(2,4-dichlorophenoxy)methyl]pyridin-4-yl}methylidene)azetidin-1-yl]methyl}-1-{[(2S)-oxetan-2-yl]methyl}-1H-1,3-benzodiazole-6-carboxylic acid]
Second: O=C(O)c1ccc2nc(CN3CC=C(c4cc(COc5ccc(Cl)cc5F)ccn4)C3)n(C[C@@H]3CCO3)c2c1 [Compound 393]
The EC50 of the first is lower: less than 0.05 µM for the first, 0.05 to 0.5 µM for the second. The first is the more potent here.

Compared with `O=C(O)c1cc(F)c2nc(CN3CC[C@@H](c4ccnc(COc5ccc(Cl)cc5F)c4)C3)n(C[C@@H]3CCO3)c2c1` [Compound 428, 2-{[(3S)-3-{2-[(4-chloro-2-fluorophenoxy)methyl]pyridin-4-yl}pyrrolidin-1-yl]methyl}-4-fluoro-1-{[(2S)-oxetan-2-yl]methyl}-1H-1,3-benzodiazole-6-carboxylic acid], `N#CCC1(Cn2c(CN3CC[C@H](c4ccnc(COc5ccc(Cl)cc5F)c4)C3)nc3c(F)cc(C(=O)O)cc32)CC1` [Compound 434, 2-{[(3R)-3-{2-[(4-chloro-2-fluorophenoxy)methyl]pyridin-4-yl}pyrrolidin-1-yl]methyl}-1-{[1-(cyanomethyl)cyclopropyl]methyl}-4-fluoro-1H-1,3-benzodiazole-6-carboxylic acid] is higher in EC50: less than 0.05 µM for the first, 0.05 to 0.5 µM for the second.

First: N#Cc1cc(Cl)ccc1OCc1cccc(OC2CN(Cc3nc4ccc(C(=O)O)cc4n3Cc3ncco3)C2)c1 [Compound 229, 2-[(3-{3-[(4-chloro-2-cyanophenoxy)methyl]phenoxy}azetidin-1-yl)methyl]-1-[(1,3-oxazol-2-yl)methyl]-1H-1,3-benzodiazole-6-carboxylic acid]
Second: O=C(O)c1ccc2nc(CN3CC=C(c4cc(COc5ccc(Cl)cc5F)ccn4)C3)n(Cc3ncco3)c2c1 [Compound 394, 2-[(3-{4-[(4-chloro-2-fluorophenoxy)methyl]pyridin-2-yl}-2,5-dihydro-1H-pyrrol-1-yl)methyl]-1-[(1,3-oxazol-2-yl)methyl]-1H-1,3-benzodiazole-6-carboxylic acid]
The EC50 of the first is lower: less than 0.05 µM for the first, 0.05 to 0.5 µM for the second.

`N#Cc1ccc(OCc2nc(N3CC[C@H](Cc4nc5c(F)cc(C(=O)O)cc5n4C[C@@H]4CCO4)C3)ccc2F)c(F)c1` [Compound 529] and `N#Cc1ccc(OCc2nc(N3CC[C@@H](Cc4nc5c(F)cc(C(=O)O)cc5n4C[C@@H]4CCO4)C3)ccc2F)c(F)c1` [Compound 534] cannot be ordered by EC50: less than 0.05 µM for the first, less than 0.05 µM for the second.

Compared with `N#Cc1ccc(OCc2nc([C@H]3CCN(Cc4nc5c(F)cc(C(=O)O)cc5n4C[C@@H]4CCO4)C3)ccc2F)c(F)c1` [Compound 455, 2-{[(3S)-3-{6-[(4-cyano-2-fluorophenoxy)methyl]-5-fluoropyridin-2-yl}pyrrolidin-1-yl]methyl}-4-fluoro-1-{[(2S)-oxetan-2-yl]methyl}-1H-1,3-benzodiazole-6-carboxylic acid], `N#Cc1ccc(OCc2cc([C@H]3CCN(Cc4nc5c(F)cc(C(=O)O)cc5n4C[C@@H]4CCO4)C3)ccc2F)c(F)c1` (single isomer, unassigned) [Example 449] is lower in EC50: 0.05 to 0.5 µM for the first, less than 0.05 µM for the second.

`N#CCC1(Cn2c(Cc3ccc(Oc4cccc(COc5ccc(C#N)cc5F)n4)cc3F)nc3c(F)cc(C(=O)O)cc32)CC1` [Compound 469, 2-{[4-({6-[(4-cyano-2-fluorophenoxy)methyl]pyridin-2-yl}oxy)-2-fluorophenyl]methyl}-1-{[1-(cyanomethyl)cyclopropyl]methyl}-4-fluoro-1H-1,3-benzodiazole-6-carboxylic acid] and `CCn1cncc1Cn1c(Cc2ccc(Oc3ccnc(COc4ccc(C#N)cc4F)n3)cc2F)nc2ccc(C(=O)O)cc21` [Example 460, 2-(4-((2-((4-Cyano-2-fluorophenoxy)methyl)pyrimidin-4-yl)oxy)-2-fluorobenzyl)-1-((1-ethyl-1H-imidazol-5-yl)methyl)-1H-benzo[d]imidazole-6-carboxylic acid] cannot be ordered by EC50: less than 0.05 µM for the first, less than 0.05 µM for the second.

`N#CCC1(Cn2c(CN3CC=C(c4nc(COc5ccc(Cl)cc5F)ccc4F)C3)nc3ccc(C(=O)O)cc32)CC1` [Compound 438, 2-[(3-{6-[(4-chloro-2-fluorophenoxy)methyl]-3-fluoropyridin-2-yl}-2,5-dihydro-1H-pyrrol-1-yl)methyl]-1-{[1-(cyanomethyl)cyclopropyl]methyl}-1H-1,3-benzodiazole-6-carboxylic acid] and `O=C(O)c1ccc2nc(CN3CC=C(c4ccc(F)c(COc5ccc(Cl)cc5F)n4)C3)n(C[C@@H]3CCO3)c2c1` [Example 407, (S)-2-((3-(6-((4-Chloro-2-fluorophenoxy)methyl)-5-fluoropyridin-2-yl)-2,5-dihydro-1H-pyrrol-1-yl)methyl)-1-(oxetan-2-ylmethyl)-1H-benzo[d]imidazole-6-carboxylic acid] cannot be ordered by EC50: less than 0.05 µM for the first, less than 0.05 µM for the second.

`N#Cc1ccc(OCc2nc(C3=CCN(Cc4nc5c(F)cc(C(=O)O)cc5n4CC4(CF)CC4)C3)ccc2F)c(F)c1` [Compound 416, 2-[(3-{6-[(4-cyano-2-fluorophenoxy)methyl]-5-fluoropyridin-2-yl}-2,5-dihydro-1H-pyrrol-1-yl)methyl]-4-fluoro-1-{[1-(fluoromethyl)cyclopropyl]methyl)-1H-1,3-benzodiazole-6-carboxylic acid] and `O=C(O)c1cc(F)c2nc(CN3CC=C(c4nc(COc5ccc(Cl)cc5F)ccc4F)C3)n(C[C@@H]3CCO3)c2c1` [Compound 437, 2-[(3-{6-[(4-chloro-2-fluorophenoxy)methyl]-3-fluoropyridin-2-yl}-2,5-dihydro-1H-pyrrol-1-yl)methyl]-4-fluoro-1-{[(2S)-oxetan-2-yl]methyl}-1H-1,3-benzodiazole-6-carboxylic acid] cannot be ordered by EC50: less than 0.05 µM for the first, less than 0.05 µM for the second.

`CCn1cncc1Cn1c(CN2C[C@@H](Oc3cccc(COc4ccc(Cl)cc4Cl)c3)[C@@H]2C)nc2ccc(C(=O)O)cc21` [Compound 234, 2-{[(2S,3R)-3-{3-[(2,4-dichlorophenoxy)methyl]phenoxy}-2-methylazetidin-1-yl]methyl}-1-[(1-ethyl-1H-imidazol-5-yl)methyl]-1H-1,3-benzodiazole-6-carboxylic acid] and `CCn1cncc1Cn1c(CN2CCC(Cc3cccc4c3OC(C)(c3ccc(Cl)cc3F)O4)CC2)nc2ccc(C(=O)O)cc21` (stereo not drawn) [Compound 209] cannot be ordered by EC50: less than 0.05 µM for the first, less than 0.05 µM for the second.

Work on `O=C(O)c1ccc2nc(CN3CC=C(c4ccnc(COc5ccc(Cl)cc5Cl)c4)C3)n(Cc3ncco3)c2c1` [Compound 392] yielded an EC50 of less than 0.05 µM.
